Measurements as given in PMC12006758 (Frontiers in Chemistry, 2025).
pKi: −log10 of the molar value. ≈ marks a conversion by molar mass, not a printed value. Read-outs that look alike come from different tables or passages of the source. One block for each compound: values may come before it.

Legend:
[1] = test system: PC3 cells; test: Cell cycle analysis by flow cytometry (PI); format: cell-based, human; conditions: Pyr at IC50 (8.63 μg/mL), 24 hours
Method: For further details, See Supplementary Appendix A in the supplementary data.
After treatment, the cells were washed twice with ice-cold phosphate-buffered saline (PBS, pH 7.4, Sigma-Aldrich, Inc.), collected by centrifugation, and fixed in 66% ice-cold ethanol. The cells were subsequently washed with PBS, resuspended in a solution containing 0.1 mg/mL RNase for 30 minutes, stained with 50 µg/mL propidium iodide (PI), and analyzed using the FACSCalibur flow cytometry system (Becton Dickinson, Franklin Lakes, NJ, USA). Cell cycle distributions were determined with CellQuest software (Becton Dickinson).

[2] = test system: Bax; test: Bax protein expression level in PC3 cells; format: cell-based, human; conditions: DMSO control 81.49 ± 3.16
[3] = test system: caspase-9; test: Caspase-9 activity in PC3 cells; format: cell-based, human; conditions: DMSO control 4.66 ± 0.41
Text: (§1) This notable increase underscores the activation of downstream apoptotic processes, as caspase-3 is a key effector protease responsible for the cleavage of vital cellular substrates during apoptosis. […] The activation of caspase-9 indicates the involvement of the intrinsic (mitochondrial) pathway, consistent with the observed modulation of upstream regulators, including p53, Bax, and Bcl-2.

[4] = test system: PC3 cancer cell line; test: MTT cell viability assay, PC3; format: cell-based; conditions: Homo sapiens, read-out: IC50 PC3
Method: (§2) All cell lines were obtained from the Vacsera Cell Culture Library, Tissue Culture Unit, Cairo, Egypt, with ATCC certification. For further details, See Supplementary Appendix A in the supplementary data.
(§3) All cell lines were obtained from the Vacsera Cell Culture Library, Tissue Culture Unit, Cairo, Egypt, with ATCC certification.
(§4) Cells were cultured in DMEM (Invitrogen/Life Technologies) supplemented with 10% FBS (Hyclone), […] (Sigma), and 1% penicillin-streptomycin. Cells were seeded at a density of 1.2–1.8 × 10,000 cells per well in 96-well plates with 100 µL of complete growth medium […]. After 24 hours of incubation, 100 µL of serially diluted sterile test compounds were added to achieve final concentrations ranging from 0.01 to 100 µM, with growth media serving as the negative control. Following another 24-hour incubation, supernatants were removed, and cells were prepared for MTT testing.
(§5) Each experiment included a blank control with complete media but no cells. […] Reconstituted MTT was added to the culture medium at 10% of its volume, and cultures were incubated for 2 to 4 hours, depending on cell type and density.
(§6) Absorbance was measured spectrophotometrically at 570 nm, with background absorbance at 690 nm subtracted. Data from all experiments were recorded, and cell viability percentages were calculated.

[5] = test system: HT-29 cancer cell line; test: MTT cell viability assay, HT-29; format: cell-based; conditions: Homo sapiens, HT-29 colon cancer cells
Method: as §2, §3, §4, §5, §6

[6] = test system: normal CCD-986sk cell line; test: MTT cell viability assay, normal CCD-986sk; format: cell-based; conditions: Homo sapiens, read-out: IC50 CCD-986sk
Method: as §2, §3, §4, §5, §6

[7] = test system: caspase-3; test: Caspase-3 activity in PC3 cells; format: cell-based, human; conditions: DMSO control 67.02 ± 2.6
Text: as §1

[8] = test system: p53; test: p53 protein expression level in PC3 cells; format: cell-based, human; conditions: DMSO control 151.33 ± 3.33
[9] = test system: Bcl-2; test: Bcl-2 protein expression level in PC3 cells; format: cell-based, human; conditions: DMSO control 21.68 ± 0.7
[10] = test system: PC3 cells; test: Annexin V-FITC/PI apoptosis assay; format: cell-based, human; conditions: Pyr at IC50 (8.63 μg/mL), 48 hours
Text: To detect apoptosis in PC3 cancer cells, the Annexin V FITC assay protocol was employed as described in the literature ([Ali et al., 2024]). For further details, See Supplementary Appendix A in the supplementary data.
The Annexin V-FITC Apoptosis Detection Kit (Catalog #: K101-25, Bio Vision Research Products, Mountain View, CA, USA) operates on the principle that during the early stages of apoptosis, phosphatidylserine (PS) translocates from the inner leaflet of the plasma membrane to the extracellular surface. This relocation allows PS to be detected by Annexin V, a protein with high affinity for PS, when conjugated with a fluorescent compound. The staining process is quick, taking only 10 minutes, and apoptosis detection is performed using flow cytometry. The kit differentiates between apoptotic and necrotic cells based on Annexin V-FITC and propidium iodide (PI) labeling. Early apoptotic cells are Annexin V-positive and PI-negative, while late apoptotic cells are both Annexin V-positive and PI-positive.
For the experiment, cells (5 × 10⁵) were cultured in triplicate in Dulbecco’s Modified Eagle Medium (DMEM) at 37 °C in a 5% CO₂ atmosphere for 24 hours to allow for attachment. […] Following incubation, cells were harvested, washed with cold PBS, and resuspended in binding buffer. Annexin V and PI were added, and the cells were incubated at 4 °C in the dark for 30 minutes for staining. Flow cytometric analysis was performed using the FACS Calibur system (Becton Dickinson, Franklin Lakes, NJ, USA) on a minimum of 10⁴ cells. Dot plots were generated, and the total fraction of apoptotic cells was quantified as described.

[11] = test system: MCF7 cancer cell line; test: MTT cell viability assay, MCF7; format: cell-based; conditions: Homo sapiens
Method: as §2, §3, §4, §5, §6

[12] = target: CA IX; conditions: benzofuran-based SLC-0111 analog; ref Shaldam et al., 2021; cited from earlier work

IC50 ([4]; MTT, PC3 prostate cancer cells): 8.36 µg/mL (≈ 28.6 µM) | IC50 [5]: 27.7 µg/mL (≈ 94.9 µM) | IC50 ([11]; MTT, MCF7 breast cancer cells, read-out: IC50 MCF7): 11.2 µg/mL (≈ 38.3 µM)
SMILES: NS(=O)(=O)c1ccc(NC(=O)Nc2ccncc2)cc1 [Pyr, 4-(3-(pyridin-4-yl)ureido)benzenesulfonamide]
DNA content % G2/M ([1]; DMSO control 17.50): 7.18% | DNA content % S ([1]; DMSO control 28.66): 16.23% | DNA content % G0-G1 ([1]; DMSO control 53.84): 76.59% | Bax Conc [2]: 477.27 ± 18.54 pg/mL | Caspase-9 Conc [3]: 41.82 ± 0.95 ng/mL | IC50 ([6]; MTT, normal CCD-986sk cells): 50.3 µg/mL (≈ 172 µM) | Caspase 3 Conc [7]: 573.19 ± 22.27 pg/mL | P53 Conc [8]: 1461.33 ± 10.00 pg/mL | Bcl-2 Conc [9]: 8.88 ± 0.3 pg/mL | Apoptosis Late ([10]; DMSO control 0.15): 15.74% | Apoptosis Early ([10]; DMSO control 0.42): 9.33% | Necrosis ([10]; DMSO control 1.82): 4.39%

IC50 [4]: 8.71 µg/mL (≈ 28.2 µM) | IC50 ([11]; MCF7, read-out: IC50 MCF7): 18.1 µg/mL (≈ 58.7 µM)
SMILES: NS(=O)(=O)c1ccc(NC(=O)Nc2ccc(F)cc2)cc1 [SLC-0111, reference compound]
IC50 ([6]; CCD-986Sk): 45.7 µg/mL (≈ 148 µM)

SMILES: NS(=O)(=O)c1ccc(NC(=O)Nc2oc3ccccc3c2Br)cc1 [compound 1]
pKi [12]: 8.15
